# Source: paper PMC8657723, “Novel Pituitary Actions of TAC4 Gene Products in Teleost” (International Journal of Molecular Sciences, 2021)
# Entries after “also recorded” stand apart in the source; their conditions may differ. Ends that are not written are not given here.
# Tests used:
# [1] = test system: mammals; parameters: method as in PMID 18337115; settings: cited from earlier work
# [2] = test system: rats; parameters: method as in 2 sources, ref 26, 51 = [26]; PMID 19854230; doi:10.1016/j.peptides.2009.10.013; 26. Yang Y. Dong S. Effects of Endokinin A/B and Endokinin C/D on the modulation of pain in mice Peptides 2010 31 94 100 10.1016/j.peptides.2009.10.013 19854230 || [51]; PMID 12524318; doi:10.1016/S0006-3495(03)74885-1; 51. Grace R.C. Chandrashekar I.R. Cowsik S.M. Solution structure of the tachyk-inin peptide eledoisin Biophys. J. 2003 84 655 664 10.1016/S0006-3495(03)74885-1 12524318 PMC1302646 ||| ref 26, 53, 54 = [26]; PMID 19854230; doi:10.1016/j.peptides.2009.10.013; 26. Yang Y. Dong S. Effects of Endokinin A/B and Endokinin C/D on the modulation of pain in mice Peptides 2010 31 94 100 10.1016/j.peptides.2009.10.013 19854230 || [53]; PMID 17655832; doi:10.1016/j.brainres.2007.05.062; 53. Naono R. Nakayama T. Ikeda T. Matsushima O. Nishimori T. Leucine at the carboxyl-terminal of endokinins C and D contributes to elicitation of the antagonistic effect on substance P in rat pain pro || [54]; PMID 17101218; doi:10.1016/j.neulet.2006.09.024; 54. Yoshioka D. Takebuchi F. Nishimori T. Naono R. Ikeda T. Nakayama T. Intrathecal administration of the common carboxyl-terminal decapeptide in end-okinin A and endokinin B evokes scratching behavio; settings: cited from earlier work; for pain-related behaviors: central administration, scratching, paw withdrawal, thermal hyperalgesia; for effect on SP- or EKA/B-induced pain-related behaviors: simultaneous treatment
# [3] = test system: six NKR isoforms; experiment: Functional activation of the six grass carp NKR isoforms, NFAT-Luc reporter in HEK293T cells; assay type: cell-based, grass carp (Ctenopharyngodon idellus); settings: 24 h
# Protocol: To clarify the receptor selectivity of TAC4 gene products, a transfection experiment was conducted in HEK293T cells, and the fluorescent signal was detected by the firefly luciferase reporter gene detection kit. Firstly, the cDNA sequences of neurokinin receptor 1 isoforms a (NK1Ra), neurokinin receptor 1 isoforms b (NK1Rb), NK2R, neurokinin receptor 3 isoforms a1 (NK3Ra1), neurokinin receptor 3 isoforms a2 (NK3Ra2), and neurokinin receptor 3 isoforms b (NK3Rb) were isolated from grass carp pituitary, and the coding region of the six receptors were then subcloned into the eukaryotic expression vector pcDNA3.1. Secondly, the HEK293T cells were co-transfected with the plasmids of NFAT-Luc (Nuclear factor of activated T cells-luciferase), green fluorescent protein (GFP), and each pcDNA3.1-NKRs by using Lipofectamine 3000 (Thermo Fisher). The transfected HEK293T cells were incubated with various concentration HK-1 (1–10,000 nM), HK-2 (1–10,000 nM), or HK1-V7F (1–10,000 nM) for 24 h, respectively. Finally, the transfected cells were collected to detect the luciferase value according to the instructions of the firefly luciferase reporter gene detection kit.
# To clarify the receptor selectivity of HK1 and HK2 for the six NKRs, HEK-293T cell lines were established to stably express NK1Ra, NK1Rb, NK2R, NK3Rb, NK3Ra1, or NK3Ra2 were established, respectively. The cells were then used for transfection study with NFAT-Luc vectors, which was allowed for functional evaluation of the activation status of Ca^2+-dependent pathway.
# Figure 2 Receptor selectivity of HK1, HK2, and HK1-V7F. The nuclear factor of activated T-cells (NFAT)-Luc reporter together with NK1Ra, NK1Rb, NK2R, NK3Rb, NK3Ra1, or NK3Ra2, were transiently transfected into HEK-293 cells, respectively. The cells were incubated with increasing levels of grass carp HK1, HK2, or HK1-V7F (0.1–1000 nM), respectively. The luciferase activities were normalized against renilla expression in the same sample to adjust for potential variations in transfection efficiency. Each point is determined quadruplicate and is given as a mean ± SEM. The groups denoted by different letters represent significant differences at p-value < 0.05 (ANOVA followed Dunnett’s test).
# [4] = test system: grass carp pituitary cells; experiment: RT-qPCR of pituitary gene mRNA expression after peptide treatment of grass carp pituitary cells; assay type: cell-based, grass carp (Ctenopharyngodon idellus); settings: 0.1–1000 nM, 24 h
# Excerpt: To further confirm the pituitary actions of HKs in grass carp, trypsin digestion method was used to prepare for grass carp primary cultured pituitary cells. […] After drug treatment, total RNA was extracted from adherent cells by Trizol, and then subjected to reverse transcription using HifairTM III 1st Strand cDNA Synthesis Kit (Yeasen, Shanghai, China). In the present study, β-actin was used as the internal reference gene, and then, the transcript levels of PRL, SLα, CART2, UTS1, and NMB1 were detected by using a ABI 7500 real-time PCR system (see Supplementary Table S2 for primer sequences and PCR condition). In addition, the plasmid DNA containing the gene coding sequence was serially diluted as a standard for data calibration.
# In this study, RT-qPCR was used to detect mRNA expression for TAC4, NKRs, PRL, SLα, CART2, UTS1, SN2, and NMB1. In the ABI7500 software, the dynamic mRNA concentration detection range of the double standard curve is 10^5, and the correlation coefficient is >0.95. […] In the transfection experiment, the detected firefly luciferase activity was routinely normalized with the GFP activity expressed in the same well, expressed as the luciferin activity ratio Luc ratio. The data from four parallel experiments was presented as mean ± SEM in the figure. All the data were analyzed by ANOVA, and then subjected to Dunnett’s test in GraphPad Prism 7.0. The significant differences between groups were indicated by p < 0.05.
# Figure 5 TAC4 gene products (HK1 and HK2) induced PRL (A) and SLα (B) mRNA expression in grass carp pituitary cells. Time course of grass carp HK1 (1 μM) and HK2 (1 μM) on PRL (A) and SLα (B) mRNA expression in grass carp pituitary cells. Dose-dependence of 24-h treatment with increasing levels of HK1 and HK2 (0.1–1000 nM) on PRL (A) and SLα (B) mRNA expression in grass carp pituitary cells. After drug treatment, the total RNA of the cells was extracted by the Trizol method, and the expression of various genes was detected by RT-PCR. Data presented were expressed as mean ± SEM, and the differences between groups were significant at p-value < 0.05 by labeling diverse letters.
# Figure 6 TAC4 gene products (HK1 and HK2) induced CART2, NMB1, and UTS1 mRNA expression in grass carp pituitary cells. Time course of grass carp HK1 (1 μM) and HK2 (1 μM) on CART2 (A), NMB1 (B), and UTS1 (C) mRNA expression in grass carp pituitary cells. Dose-dependence of 24-h treatment with increasing levels of HK1 or HK2 (0.1–1000 nM) on CART2 (A), NMB1 (B), and UTS1 (C) mRNA expression in grass carp pituitary cells. After drug treatment, the total RNA of the cells was extracted by the Trizol method, and the expression of various genes were detected by RT-PCR. Data presented were expressed as mean ± SEM, and the differences between groups were significant at p-value < 0.05 by labeling diverse letters.
# Figure 9 Phe to Val mutation in FXGLM motif in PRL, SLα, and UTS1 regulation by HK2 in grass carp pituitary cells. (A) Effects of HK1-V7F on PRL, SLα, and UTS1 mRNA expression in grass carp pituitary cells. In this experiment, grass carp pituitary cells were incubated for 24 h with increasing levels of HK1-V7F (0.1–1000 nM). (B) Suppressed effects of HK1 on HK2-induced PRL, SLα, and UTS1 mRNA expression in grass carp pituitary cells. Pituitary cells were challenged for 24 h with grass carp HK2 (0.1 µM) in the presence or absence of HK1 (1 µM) and HK1 (10 µM). In these experiment, Trizol method was used to extract total cell RNA, and RT-PCR was used to detect PRL, SLα, and UTS1 mRNA expression. Data presented are expressed as mean ± SEM, and the differences between groups were significant at p-value < 0.05 by labeling diverse letters.
# [5] = test system: carp pituitary cells; settings: cited from earlier work; for LHβ secretion / PRL and SLα transcriptional levels / PRL secretion / SLα secretion: pituitary cells of carp
# Excerpt: In mammals, the tachykinin (TAC) family includes three members, namely tachykinin 1 (TAC1), tachykinin 3 (TAC3) (tachykinin 2 (TAC2) in rodents), and TAC4, respectively. Among them, TAC1 gene encodes substance P (SP) and neurokinin A (NKA). SP is known to be involved in the regulation of pain control/injury, neurogenicinflammation and obesity with mammals. Compared with mammals, teleost have undergone an additional genome duplication during evolution, which is called fish-specific genome duplication (FSGD) or the 3R hypothesis. […] The resear ... || In mammals, many studies have focused on the actions of hemokinin on immunological regulation and inflammation. However, little information is available about its endocrinology function. […] Similar resu ... || (+ 1 further places)
# [6] = test system: carp NK2R; parameters: method as in PMID 28323939; settings: cited from earlier work
# Excerpt: In mammals, the biological action of tachykinins is mediated by three GPCRs, namely NK1R, NK2R, and NK3R, which are stimulated preferentially by SP, NKA, and NKB, respectively. […] In the present study, due to the third round whole-genome duplication, 6 NKRs were detected in grass carp, namely NK1Ra, NK1Rb, NK2R, NK3Ra1, NK3Ra2, and NK3Rb, respectively. Based on the ...
# [7] = test system: sexually mature female zebrafish; settings: intraperitoneal injection; cited from earlier work
# Excerpt: In mammals, TAC3 encodes neurokinin B (NKB), is known to be involved in the regulation of smooth muscles of the gastrointestinal tract, secretion of intestinal epithelial fluid, vasodilation, and stimulating sperm motility. […] The resear ...
# [8] = parameters: method as in PMID 20233609, PMID 23317790; settings: cited from earlier work
substance,measurement,setting,value
"CRH: corticortropin-releasing hormone (SEEPPISLDLTFHLLREVLEMARAEQLAQQAHSNRKLMEII; ends and bridges not checked; UniProt P06850 154-194, looked up)",food intake and energy expenditure,[1],reduce food intake and induce energy expenditure
"EKA/B: endokinins A and B, human TAC4 products (GKASQFFGLM; ends and bridges not checked; UniProt Q86UU9 58-67, looked up)",pain-related behaviors,[2],induce pain-related behaviors
"TPGLQQFFGLM-NH2 [HK1-V7F, Val to Phe mutant of HK1, …-NH2]","ED50, NFAT-Luc luciferase activity, NKR isoforms (in words)",[3]; HEK-293T expressing each NKR,nanomolar dose range
same,activation of the six NKR isoforms (in words),"[3]; NFAT-Luc luciferase, HEK293T, NK1Ra, NK1Rb, NK2R, NK3Ra1, NK3Ra2, NK3Rb",notably enhanced
same,"PRL mRNA expression, HK1-V7F dose-response",[4],levels comparable to that induced by HK2
same,"SLα mRNA expression, HK1-V7F dose-response",[4],levels comparable to that induced by HK2; also recorded: markedly enhanced to the levels for HK2
same,"UTS1 mRNA expression, HK1-V7F dose-response",[4],levels comparable to that induced by HK2
"endokinin C (KKAYQLEHTFQGLL; ends and bridges not checked; UniProt Q86UU9 82-95, looked up) [EKC, human TAC4 product with FXGLL motif]",effect on SP- or EKA/B-induced pain-related behaviors,[2],can be blocked
endokinin D [EKD],effect on SP- or EKA/B-induced pain-related behaviors,[2],can be blocked
"neurokinin A (HKTDSFVGLM; ends and bridges not checked; UniProt P20366 98-107, looked up) [NKA, TAC1 gene product]",LHβ secretion,[5],can trigger the secretion
same,PRL and SLα transcriptional levels,[5],increase in parallel
same,PRL secretion,[5],can trigger the secretion
same,SLα secretion,[5],can trigger the secretion
same,activation of carp NK2R,[6],comparable efficacy and potency
"neurokinin B (DMHDFFVGLM; ends and bridges not checked; UniProt Q9UHF0 81-90, looked up) [NKB, TAC3 gene product]",pituitary PRL and SLα synthesis and secretion,[5],significantly induce pituitary PRL and SLα synthesis and secretion
same,PRL and SLα secretion and mRNA synthesis,[5]; grass carp pituitary cells,promote PRL and SLα secretion and mRNA synthesis
same,"UTS1, CART2 and NMB1 mRNA expression",[5]; grass carp pituitary cells,could stimulate
same,LHβ secretion in zebrafish,[7],induce LHβ secretion
neurokinin B-related peptide [NKBRP],PRL and SLα secretion and mRNA synthesis,[5]; grass carp pituitary cells,promote PRL and SLα secretion and mRNA synthesis
same,LHβ secretion in zebrafish,[7],induce LHβ secretion
neuromedin B [NMB],feeding and gastric peristalsis,[8],inhibit feeding and gastric peristalsis
"substance P (RPKPQQFFGLM; ends and bridges not checked; UniProt P20366 58-68, looked up) [SP, TAC1 gene product]","LHβ release, short-term treatment",[5]; 3 h,induced the release of LHβ
same,"LHβ mRNA expression, prolonged treatment",[5]; 24 h,inhibited LHβ mRNA expression
same,LHβ secretion,[5],can trigger the secretion
same,PRL and SLα transcriptional levels,[5],increase in parallel
same,PRL secretion,[5],can trigger the secretion
same,SLα secretion,[5],can trigger the secretion
same,activation of carp NK2R,[6],comparable efficacy and potency
same,pain-related behaviors,[2],induce pain-related behaviors
